Paper PMC7758046, “Novel piperazine–chalcone hybrids and related pyrazoline analogues targeting VEGFR-2 kinase; design, synthesis, molecular docking studies, and anticancer evaluation” (Journal of Enzyme Inhibition and Medicinal Chemistry, 2020)
“Also recorded” adds a separate entry of the source.

Tests used:
A498 (Renal cancer) = assay: NCI-60 single-dose anticancer screen; assay type: cell-based, human; settings: 10 µM single dose
Procedure: (§1) Six compounds were selected by the NCI, according to NCI’s DTP selection guidelines, for evaluation of their anticancer activity at a single-dose of 10 µM against 60 human tumours cell lines.
(§2) In vitro cytotoxicity was performed in NCI according to reported method.

[1] = system: NCI-H460 (Non-small cell lung cancer); assay: NCI-60 single-dose anticancer screen; assay type: cell-based, human; settings: 10 µM single dose
Procedure: as §1, §2

K-562 (Leukaemia) = assay: NCI-60 single-dose anticancer screen; assay type: cell-based, human; settings: for cell growth promotion: 10 µM single dose; for inhibition at 10 µM: Homo sapiens, K562, 10 µM single dose, read-out: cell growth inhibition
Procedure: as §1, §2

HCT-116 (Colon cancer) = assay: NCI-60 single-dose anticancer screen; assay type: cell-based, human; settings: for cell growth promotion: 10 µM single dose; for inhibition at 10 µM: Homo sapiens, read-out: cell growth inhibition
Procedure: as §1, §2

KM12 (Colon cancer) = assay: NCI-60 single-dose anticancer screen; assay type: cell-based, human; settings: 10 µM single dose
Procedure: as §1, §2

[2] = system: NCI-H522 (Non-small cell lung cancer); assay: NCI-60 single-dose anticancer screen; assay type: cell-based, human; settings: 10 µM single dose
Procedure: as §1, §2

MOLT-4 (Leukaemia) = assay: NCI-60 single-dose anticancer screen; assay type: cell-based, human; settings: 10 µM single dose
Procedure: as §1, §2

UACC-62 (Melanoma) = assay: NCI-60 single-dose anticancer screen; assay type: cell-based, human; settings: 10 µM single dose
Procedure: as §1, §2

HS 578T (Breast cancer) = assay: NCI-60 single-dose anticancer screen; assay type: cell-based, human; settings: 10 µM single dose
Procedure: as §1, §2

[3] = system: NCI/ADR-RES (Ovarian cancer); assay: NCI-60 single-dose anticancer screen; assay type: cell-based, human; settings: 10 µM single dose
Procedure: as §1, §2

M14 (Melanoma) = assay: NCI-60 single-dose anticancer screen; assay type: cell-based, human; settings: 10 µM single dose
Procedure: as §1, §2

HCT-15 (Colon cancer) = assay: NCI-60 single-dose anticancer screen; assay type: cell-based, human; settings: 10 µM single dose
Procedure: as §1, §2

U251 (CNS cancer) = assay: NCI-60 single-dose anticancer screen; assay type: cell-based, human; settings: 10 µM single dose
Procedure: as §1, §2

human VEGFR-2 = biological target: T1, human VEGFR-2 (Homo sapiens, UniProt P35968); assay: In vitro VEGFR-2 inhibitory assay (colorimetric human VEGFR-2 ELISA, HTScan VEGF Receptor 2 Kinase Assay Kit); assay type: biochemical; settings: VEGFR-2 inhibition
T1 construct: It includes active VEGFR-2 kinase; purchased HTScan VEGF Receptor 2 Kinase Assay Kit
T1 sequence (P35968 20-1356): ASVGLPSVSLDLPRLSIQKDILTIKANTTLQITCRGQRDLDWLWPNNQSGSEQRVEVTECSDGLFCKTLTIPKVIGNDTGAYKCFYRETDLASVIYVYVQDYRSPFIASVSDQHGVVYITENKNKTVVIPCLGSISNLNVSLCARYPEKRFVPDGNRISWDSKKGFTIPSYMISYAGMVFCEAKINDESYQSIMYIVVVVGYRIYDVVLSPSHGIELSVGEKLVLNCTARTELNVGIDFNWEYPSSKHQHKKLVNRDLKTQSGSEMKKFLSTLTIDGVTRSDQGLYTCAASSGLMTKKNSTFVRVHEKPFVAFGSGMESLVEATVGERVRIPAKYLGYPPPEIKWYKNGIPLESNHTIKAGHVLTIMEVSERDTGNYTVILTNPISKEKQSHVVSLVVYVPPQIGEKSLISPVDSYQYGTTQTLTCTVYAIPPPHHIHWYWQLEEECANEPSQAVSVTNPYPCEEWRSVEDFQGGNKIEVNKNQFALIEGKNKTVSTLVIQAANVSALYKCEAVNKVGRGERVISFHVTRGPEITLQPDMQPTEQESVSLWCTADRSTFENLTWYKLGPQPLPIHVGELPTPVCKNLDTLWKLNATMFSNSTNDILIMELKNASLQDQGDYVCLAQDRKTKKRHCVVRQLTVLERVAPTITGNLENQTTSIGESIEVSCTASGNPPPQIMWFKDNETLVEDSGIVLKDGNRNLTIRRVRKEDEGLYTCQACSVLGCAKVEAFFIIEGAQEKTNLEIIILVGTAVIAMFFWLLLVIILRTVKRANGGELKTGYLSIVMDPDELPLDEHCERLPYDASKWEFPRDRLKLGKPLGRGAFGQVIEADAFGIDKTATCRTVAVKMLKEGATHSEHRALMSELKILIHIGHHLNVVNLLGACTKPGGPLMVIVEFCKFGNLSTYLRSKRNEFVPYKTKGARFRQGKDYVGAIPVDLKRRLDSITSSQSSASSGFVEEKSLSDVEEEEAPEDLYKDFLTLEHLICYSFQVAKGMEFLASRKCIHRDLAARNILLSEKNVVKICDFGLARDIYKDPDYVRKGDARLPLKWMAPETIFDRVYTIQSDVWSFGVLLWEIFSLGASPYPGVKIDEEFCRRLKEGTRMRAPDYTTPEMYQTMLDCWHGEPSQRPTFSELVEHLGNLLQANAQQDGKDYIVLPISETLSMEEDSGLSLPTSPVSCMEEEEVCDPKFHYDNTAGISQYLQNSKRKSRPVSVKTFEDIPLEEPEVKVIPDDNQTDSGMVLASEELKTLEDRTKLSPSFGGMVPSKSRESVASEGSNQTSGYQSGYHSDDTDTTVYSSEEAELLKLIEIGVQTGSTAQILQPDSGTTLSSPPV
Procedure: VEGFR is considered as an important target for the development of potential anti-cancer candidates.
On a 96-well plate, a particular VEGFR-2 antibody was seeded and 100 µL of the normal solution or compound tested was applied, incubated at room temperature for 2.5 h and washed.
Then, 100 µL of the prepared biotin antibody was added, incubated for an additional 1 h at room temperature and washed. Following, 100 µL of streptavidin solution was added at room temperature, incubated for 45 min and then, 100 µL of TMB substrate solution was applied and incubated at room temperature for 30 min. Finally, 50 µL stop solution was added and the absorption was measured at 450 nm instantly. The standard curve, the X-axis concentrations, and the Y-axis absorbance were drawn.

HCT-116 cells [4] = assay: Annexin V-FITC/PI apoptosis assay; settings: for Apoptosis Early: control 0.51; for Necrosis: control 1.21; for Apoptosis Total: control 1.97
HCT-116 cells [5] = assay: Cell cycle analysis by DNA flow cytometry; assay type: cell-based, human; settings: 10 µM; for %Pre-G1 / %G2/M / %S / %G0/G1: 24 h; for %Pre-G1: control 1.97; for %G2/M: control 15.44; for %S: control 30.18; for %G0/G1: control 54.38
Procedure: Flow cytometric analysis is considered a valuable method for determining and analysing the cell cycle parameters. […] The effect on the cell cycle distribution was assessed by a DNA flow cytometry analysis and the cell cycle parameters were compared to untreated control cells in HCT-116 cells which had been incubated with 10 µM of Vd and Ve compounds and the results are shown in Table 3 and Figure 3.
HCT-116 cells were seeded at concentrations of 1 × 10^5 cells per well in a six-well plate, then incubated for 24 h. The cells were treated for 24 h with vehicles (0.1% DMSO) or 10 µM of Vd or Ve compounds. Using ice-cold, 70% ethanol at 4 °C, cells were harvested and fixed for 12 h after that. Ethanol removal and cold PBS washing of the cells were done. Then incubated in 0.5 mL of PBS containing 1 mg/mL Ranse for 30 min at 37 °C. In the dark, the cells were stained with PI for 30 min. Flow cytometer was then used to detect contents of DNA[62].

Row | SMILES | melting point [°C] | cell growth promotion (A498 (Renal cancer)) [%] | cell growth promotion [1] [%] | cell growth promotion (K-562 (Leukaemia)) [%] | inhibition at 10 µM (K-562 (Leukaemia)) [%] | cell growth promotion (HCT-116 (Colon cancer)) [%] | inhibition at 10 µM (HCT-116 (Colon cancer)) [%] | cell growth promotion (KM12 (Colon cancer)) [%] | cell growth promotion [2] [%] | cell growth promotion (MOLT-4 (Leukaemia)) [%] | cell growth promotion (UACC-62 (Melanoma)) [%] | cell growth promotion (HS 578T (Breast cancer)) [%] | cell growth promotion [3] [%] | cell growth promotion (M14 (Melanoma)) [%] | cell growth promotion (HCT-15 (Colon cancer)) [%] | cell growth promotion (U251 (CNS cancer)) [%] | IC50 (human VEGFR-2) [µM] | total increase in apoptosis compared to the control (HCT-116 cells [4]) | Apoptosis Early (HCT-116 cells [4]; 10 µM, 24 h) [%] | Necrosis (HCT-116 cells [4]; 10 µM, 24 h) [%] | other results
1 | N#Cc1ccccc1C1CC(c2ccc(N3CCNCC3)cc2)=NN1 (centres unmarked) [VIa, 2-(3-(4-(Piperazin-1-yl)phenyl)-4,5-dihydro-1H-pyrazol-5-yl)benzonitrile] | 165 | 93.08 | 101.50 | 78.12 | 21.9 | 85.83 | 14.2 | 97.48 | 69.51 | 96.02 | 88.47 | 91.67 | 102.72 | 104.47 | 112.02 | 94.54 | 1.48 |  |  |  | inhibition at 10 µM ([2]; Homo sapiens, read-out: cell growth inhibition): 30.5%
2 | COc1cc(C2CC(c3ccc(N4CCNCC4)cc3)=NN2)ccc1F (centres unmarked) [VIb, 1-(4-(5-(4-Fluoro-3-methoxyphenyl)-4,5-dihydro-1H-pyrazol-3-yl)phenyl) piperazine] | 195 | 90.59 | 95.16 | 58.92 | 41.1 | 61.10 | 38.9 | 93.81 | 66.27 | 72.10 | 86.00 | 84.17 | 104.69 | 84.68 | 85.57 | 78.59 | 1.06 |  |  |  | 
3 | Fc1cnccc1C1CC(c2ccc(N3CCNCC3)cc2)=NN1 (centres unmarked) [VIc, 1-(4-(5-(3-Fluoropyridin-4-yl)-4,5-dihydro-1H-pyrazol-3-yl)phenyl) piperazine] | 135 | 97.17 | 94.92 | 77.92 |  | 73.82 | 26.2 | 96.23 | 81.93 | 74.15 | 81.93 | 89.15 | 106.03 | 95.86 | 97.59 | 95.06 | 1.31 |  |  |  | 
4 | O=C(C=Cc1cccc(F)c1)c1ccc(N2CCNCC2)cc1 [Vd, 3-(3-Fluorophenyl)-1-(4-(piperazin-1-yl)phenyl)prop-2-en-1-one] |  | 95.14 | 74.45 | 16.55 | 83.5 | 42.08 | 57.9 | 77.75 | 71.57 | 68.62 | 79.23 | 79.41 | 109.37 | 81.16 | 73.49 | 72.39 | 0.8 | approximately 18.7 fold | 3.92 | 2.3 | Apoptosis Late (HCT-116 cells [4]; 10 µM, 24 h, control 0.25): 10.32%; Apoptosis Total (HCT-116 cells [4]; 10 µM, 24 h): 16.54%; Comment (cell cycle arrest phase) (HCT-116 cells [5]): arrest HCT-116 cell cycle in the G2/M phase; also recorded: induced cell arrest at G2/M phase; %Pre-G1 (HCT-116 cells [5]): 16.54%; %G2/M (HCT-116 cells [5]): 50.44%; %S (HCT-116 cells [5]): 27.78%; %G0/G1 (HCT-116 cells [5]): 21.78%
5 | COc1cc(C=CC(=O)c2ccc(N3CCNCC3)cc2)ccc1F [Ve, 3-(4-Fluoro-3-methoxyphenyl)-1-(4-(piperazin-1-yl)phenyl) prop-2-en-1-one] |  | 100.79 | 97.07 | 12.37 | 87.6 | 27.43 | 72.6 | 60.47 | 61.19 | 80.75 | 80.13 | 91.26 | 79.31 | 78.43 | 43.16 | 67.21 | 0.57 | ~21.2 fold | 4.76 | 2.11 | Apoptosis Total (HCT-116 cells [4]; 10 µM, 24 h): 18.22%; Comment (cell cycle arrest phase) (HCT-116 cells [5]): arrest HCT-116 cell cycle in the G2/M phase; also recorded: induced cell arrest at G2/M phase; %Pre-G1 (HCT-116 cells [5]): 18.22%; %G2/M (HCT-116 cells [5]): 46.85%; %S (HCT-116 cells [5]): 28.58%; %G0/G1 (HCT-116 cells [5]): 24.57%
6 | O=C(C=Cc1ccncc1F)c1ccc(N2CCNCC2)cc1 [Vf, 3-(3-Fluoropyridin-4-yl)-1-(4-(piperazin-1-yl)phenyl)prop-2-en-1-one] | 225 | 97.22 | 106.01 | 85.84 | 14.2 | 73.87 | 26.1 | 105.34 | 78.82 | 91.63 | 92.01 | 99.19 | 107.53 | 95.53 | 111.39 | 95.03 | 1.33 |  |  |  | 
